Measured values from PubChem BioAssay AID1645865 (Buhrlage Lab, Dana-Farber Cancer Institute and Novartis …, 2021).
Active and inactive are the calls of the source.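 How the source made its calls: active means maximal inhibition of the USP30 enzyme reaching 30% or more across the dose series; inactive means the rest.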

biological target: Ubiquitin carboxyl-terminal hydrolase 30 (Homo sapiens) (UniProt Q70CQ3); assay: inhibitors of ubiquitin-specific protease 30 deubiquitylating enzyme, concentration dependence, in vitro biochemical, validation of primary hits (AID 1645865); settings: purified USP30, Ub-rhodamine cleavage, fluorescence, 2 h
Sequence (Q70CQ3 whole entry, looked up): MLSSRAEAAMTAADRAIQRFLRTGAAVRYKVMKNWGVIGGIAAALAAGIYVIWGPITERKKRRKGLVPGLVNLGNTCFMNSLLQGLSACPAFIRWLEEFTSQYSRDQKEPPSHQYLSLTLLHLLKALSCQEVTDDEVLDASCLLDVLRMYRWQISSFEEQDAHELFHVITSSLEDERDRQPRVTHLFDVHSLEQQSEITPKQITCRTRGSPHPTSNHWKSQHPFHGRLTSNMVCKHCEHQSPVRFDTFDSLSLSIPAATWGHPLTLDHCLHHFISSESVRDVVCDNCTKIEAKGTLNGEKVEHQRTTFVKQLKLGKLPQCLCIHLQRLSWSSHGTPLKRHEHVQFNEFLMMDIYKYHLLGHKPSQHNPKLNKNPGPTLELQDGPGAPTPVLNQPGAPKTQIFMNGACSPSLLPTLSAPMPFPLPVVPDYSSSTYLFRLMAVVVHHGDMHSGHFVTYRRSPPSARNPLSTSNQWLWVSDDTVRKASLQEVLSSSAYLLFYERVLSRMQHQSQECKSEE

Row | Compound | IC50
1 | O=C(Cn1ccc2ccc(N3CCOCC3)nc21)NCc1ccccc1F | > 50 µM (inactive)
2 | O=S(=O)(c1ccccc1Cl)N1CCN(c2ccc3nnc(-c4ccco4)n3n2)CC1 | > 50 µM (inactive)
3 | O=C(CCCCn1c(=O)[nH]c2ccccc2c1=O)Nc1cccc(Cl)c1 | 21.6 µM
4 | Cc1ccc(C(=O)Nc2nc3n(n2)C(c2ccccc2)CC(=O)N3)cc1 (stereo not drawn) | 24.4 µM
5 | Cc1ccc(NC(=O)c2nnn(-c3ccccc3Br)c2C)cc1C | > 50 µM (inactive)
6 | Cc1ccc2c(c1)[C@]1(C(=O)N2)[C@@H]2C(=O)N(c3cccc(C(F)(F)F)c3)C(=O)[C@@H]2C2CCCN21 (stereo partly drawn) | > 50 µM (inactive)
7 | CN(C)c1ccc(C2CC(c3c(O)n(C)c(=O)[nH]c3=O)=Nc3ccccc3S2)cc1 (stereo not drawn) | 1.92 µM
8 | COc1ccc(CCNC(=O)c2c(N)n(-c3cccc(Cl)c3)c3nc4ccccc4nc23)cc1 | > 50 µM (inactive)
9 | CCCc1nc2sc3c(NCCCN4CCOCC4)ncnc3c2c2c1CCC2 | > 50 µM (inactive)
10 | CC(=O)c1ccc(Cc2ncc(C(F)(F)F)cc2Cl)s1 | > 50 µM (inactive)
11 | O=C(Nc1ccccc1)c1ccc2c(c1)CC(c1ccccc1)OC2=O (stereo not drawn) | 7.72 µM
12 | O=C(c1ccnn1-c1ccc2ccc(-c3ccncc3)cn12)N1CCCC1 | > 50 µM (inactive)
13 | Cc1ccc2oc(=O)c(S(=O)(=O)N3CCCCC3)cc2c1 | 12.7 µM
14 | COc1ccc(Cl)cc1NC(=O)Cn1c(=O)cc(C)c2c(C)nn(-c3ccccc3)c21 | 1.99 µM
15 | COc1ccc(-c2ccnc(-c3ccc(OCc4cccc(F)c4)cc3)n2)cc1 | 38.2 µM
16 | COC1=CC(=O)c2c(O)c(C)c(CC(C)=O)c(O)c2C1=O | > 50 µM (inactive)
17 | COc1ccc(-c2nc(CNC(=O)COc3ccc(C)cc3)cs2)cc1 | 36.3 µM
18 | O=C(Nc1ccc2c(c1)OCO2)c1[nH]nc2c1CCc1ccccc1-2 | > 50 µM (inactive)
19 | Clc1cc2nc(N3CCN(c4ccccn4)CC3)c3nncn3c2cc1Cl | 2.16 µM
20 | O=C(OCCCN1C(=O)c2cccc3c(N4CCCCC4)ccc(c23)C1=O)c1ccccn1 | > 50 µM (inactive)
21 | Cc1nc(C(=O)N[C@@H](C)C(=O)NCc2ccc3c(c2)OCO3)cc2c1[nH]c1ccccc12 | > 50 µM (inactive)
22 | CCCCCn1c(Sc2ccc(C)cc2)nc2c1c(=O)[nH]c(=O)n2C | 11.3 µM
23 | Cc1cc(O)c2c3c(c(O)c4c(c13)O[C@@H](C)C4(C)C)C(=O)C2=O | 35.1 µM
24 | c1csc(CCN2CCc3nc4cccnc4cc3C2)c1 | > 50 µM (inactive)
25 | O=S(=O)(c1cccc2cccnc12)N(CCc1ccccc1)C1CCN(CCc2ccc(Cl)cc2)CC1 | > 50 µM (inactive)

Row | Compound | IC50
26 | CCC(C)NC(=O)Cn1c(=O)n(-c2ccccc2)c(=O)c2ccc(C(=O)NCc3ccco3)cc21 (stereo not drawn) | 28.5 µM
27 | COc1ccc(NC(=O)CC(=O)c2ccc([N+](=O)[O-])cc2)cc1S(=O)(=O)Nc1ccc(Br)cc1 | 33 µM
28 | CC(C)c1ccc(NC(=O)COC(=O)c2ccc3[nH]c4c(c3c2)CCCC4)cc1 | 34.1 µM
29 | O=C(/C=C/c1ccc(F)cc1)Nc1ccc2c(c1)OCCO2 | > 50 µM (inactive)
30 | Cc1ccc(C(=O)NCC(=O)Nc2nc3ccccc3[nH]2)c(C)c1 | 39.6 µM
31 | CC(=O)N1CCCC(c2nc(C)cc(-c3cc(F)ccc3C(=O)O)n2)C1 (stereo not drawn) | > 50 µM (inactive)
32 | O=C(COc1ccc2c(c1)CCC2)Nc1ccc2c(c1)CCC2 | 26.3 µM
33 | O=C(Cc1c[nH]c2ccccc12)Nc1nc2ccccc2s1 | > 50 µM (inactive)
34 | CSc1nc2ncn(CC(=O)Nc3cccc(Cl)c3)c(=O)c2s1 | 4.75 µM
35 | O=C(NCCc1ccccc1F)c1cn2cc(Cl)ccc2n1 | 38.9 µM
36 | Cc1ccc(CNC(=O)CCCn2c(=O)c3sccc3n(CC(=O)OCc3ccccc3)c2=O)cc1 | 2 µM
37 | Cc1[nH]nc(NC(=O)C2COc3ccccc3O2)c1-c1ccccc1 (stereo not drawn) | 40.7 µM
38 | O=C(Nc1ccc(-c2nnc3n2CCCCC3)cc1)c1ccc2c(c1)OCO2 | > 50 µM (inactive)
39 | CC(=O)N1Cc2ccccc2CC2(CCCN(CC3CCOCC3)C2)C1 (stereo not drawn) | > 50 µM (inactive)
40 | Cc1cccc(C(=O)NCc2nc3ccccc3n2Cc2ccccc2C)c1 | 41.8 µM
41 | CC1CCCCN1c1nc(F)c2c(c1F)S(=O)(=O)CCN2Cc1ccccc1 (stereo not drawn) | > 50 µM (inactive)
42 | O=C(NCc1ccc(F)cc1)N1CCC2(C1)Nc1cccnc1NC2=NCc1ccccc1 (stereo not drawn) | > 50 µM (inactive)
43 | Cc1sc2ncnc(OCc3ccc(F)cc3Cl)c2c1C | > 50 µM (inactive)
44 | CC(NC(=O)c1ccccc1)c1nc2ccccc2n1CC(=O)Nc1ccc2c(c1)OCO2 (stereo not drawn) | 2.06 µM
45 | COC(=O)c1cc(C#N)c(NCc2ccccc2)nc1C | 10.1 µM
46 | O=C(NC(Cc1ccccc1)c1nc2ccccc2[nH]1)C1CC1 (stereo not drawn) | > 50 µM (inactive)
47 | CC(c1ccccc1)n1c(-c2ccc(F)cc2)nc2c(c(=O)c3ccccc3n2C)c1=O (stereo not drawn) | 2.06 µM
48 | CCOC(=O)c1cnc(C(F)(F)F)nc1Sc1n[nH]c(-c2cccs2)n1 | > 50 µM (inactive)
49 | COc1c(O)c(O)c2c(=O)cc(-c3ccc(O)cc3)oc2c1OC | > 50 µM (inactive)
50 | Cc1cccc(C(=O)N2CCc3cc(-c4nc(NC(=O)CNc5ccccc5)sc4C)ccc32)c1 | > 50 µM (inactive)

Row | Compound | IC50
51 | CC1CCc2c(sc3ncnc(OCc4cccc([N+](=O)[O-])c4)c23)C1 (stereo not drawn) | > 50 µM (inactive)
52 | Cc1ccc(NC(=O)c2nnn(-c3ccccc3)n2)cc1F | > 50 µM (inactive)
53 | Cc1cc(Nc2ccc(C(=O)NCc3ccco3)cc2)n2nc(-c3cccnc3)nc2n1 | > 50 µM (inactive)
54 | CCCn1cc(C(=O)N2CCC3(CC2)CC2(CO3)Nc3ccccc3-n3cccc32)c(C)n1 (stereo not drawn) | > 50 µM (inactive)
55 | COc1cccc(NC(=O)Nc2nccn(-c3ccc(F)cc3)c2=O)c1 | 21.2 µM
56 | CSc1nccc(-c2ccc(F)cc2)c1C#N | 36.3 µM
57 | Cc1ccc(C)c(NC(=O)CCc2nc(CSc3nc4ccccc4o3)no2)c1 | 23.8 µM
58 | O=C(Nc1ccc(F)cc1F)NC1Cc2ccccc2C1 | 29 µM
59 | CCOc1ccc(S(=O)(=O)Nc2ccc[nH]c2=O)cc1 | > 50 µM (inactive)
60 | O=C(Cn1c(=O)nc(-c2ccccc2)c2ccccc21)NCc1ccc2c(c1)OCO2 | 26.2 µM
61 | Cc1cc(NC(=O)COc2ccc3oc4ccccc4c3c2)no1 | > 50 µM (inactive)
62 | Cc1nn(C)c2c1[C@@H](c1ccc(F)cc1)[C@H](NC(=O)c1ccccc1)C(=O)N2 | > 50 µM (inactive)
63 | O=C(CSc1ncnc2c1oc1ccccc12)Nc1ccc2c(c1)OCCO2 | 18.7 µM
64 | COc1ccc(-c2nc(SCC(=O)Nc3ccc(Cl)cc3F)n[nH]2)cc1 | > 50 µM (inactive)
65 | Cc1sc(NC(=O)/C=C/c2ccco2)nc1-c1ccccc1 | > 50 µM (inactive)
66 | CC(C)NS(=O)(=O)c1ccc(CCC(=O)Nc2ccc3c(c2)OCCO3)cc1 | 37.8 µM
67 | CC(=O)Nc1ccc(-n2cnc(C(=O)NCc3ccc(C)cc3)c2)nc1 | 21.2 µM
68 | Cc1nc(-c2ccccc2F)sc1C(=O)Nc1cccnc1 | > 50 µM (inactive)
69 | Cc1ccc(C)c(-n2c(N)c(C(=O)NCCc3ccccc3)c3nc4ccccc4nc32)c1 | > 50 µM (inactive)
70 | CC1(C)OC2=C(C(=O)c3cc(O)cc(O)c3C2=O)c2cc(CO)c(O)cc21 | > 50 µM (inactive)
71 | COc1ccc(-c2nc3n(n2)C(c2cccc(O)c2)C2=C(CCCC2=O)N3)cc1 (stereo not drawn) | 38.2 µM
72 | Cn1c(CCN2CCCC2)nc2cc(NS(=O)(=O)c3ccccc3)ccc21 | > 50 µM (inactive)
73 | Cc1ccc(S(=O)(=O)N2CCC3(CC2)NC(=O)c2ccccc2N3)cc1C | 27.2 µM
74 | Cc1ccc2c(C)nc(Nc3ncc4c(n3)CC(c3ccco3)CC4=O)nc2c1 (stereo not drawn) | < 0.05 µM
75 | COc1ccc(NC(=O)C2CC(=O)Nc3cc(-c4ccccc4)nn32)cc1 (stereo not drawn) | 22.5 µM

Row | Compound | IC50
76 | O=C(c1cc(-c2ccc(Cl)cc2)n[nH]1)N1CCN(C(=O)c2ccco2)CC1 | 31.7 µM
77 | O=C(Nc1cccc(Cl)c1)N1CCC(c2cc(-c3ccco3)n[nH]2)CC1 | > 50 µM (inactive)
78 | CC1(C)C[C@@H](O)[C@]2(C)CC[C@]3(C)C(=CCC4[C@@]5(C)CC[C@H](O)[C@](C)(CO)[C@@H]5CC[C@]43C)[C@@H]2C1 (stereo partly drawn) | 3.18 µM
79 | COc1ccc(C2C(C(=O)C(C)(C)C)N3c4ccccc4C=CC3C23C(=O)c2ccccc2C3=O)c(OC)c1 (stereo not drawn) | > 50 µM (inactive)
80 | Cc1nn(CC(=O)Nc2ccc(Br)c3cccnc23)c(=O)c2ccccc12 | > 5 µM (inactive)
81 | CCOc1ccc(CCNC(=O)CCC(=O)Nc2ccc3nc(N4CCN(C)CC4)cc(C)c3c2)cc1OCC | > 50 µM (inactive)
82 | COc1ccc(OCC(=O)Nc2ccc(C)c(OCc3cc(=O)n4ccccc4n3)c2)cc1 | 4.77 µM
83 | O=C(COC(=O)c1ccc2[nH]c3c(c2c1)CCCC3)Nc1ccc2c(c1)OCO2 | 37.7 µM
84 | CCc1ccc2[nH]c(=O)c(CN(CCc3ccc(OC)c(OC)c3)C(=O)Nc3ccccc3)cc2c1 | > 50 µM (inactive)
85 | O=C(Cn1c(=O)n(Cc2ccccc2)c(=O)c2ncccc21)NCc1ccccc1Cl | > 50 µM (inactive)
86 | CC1CCN(c2nc(F)c3c(c2F)S(=O)(=O)CCN3Cc2cccnc2)CC1 | > 50 µM (inactive)
87 | CCc1noc(-c2ccc(OCC(=O)Nc3ccc(C)cc3C)cc2)n1 | 29 µM
88 | Cc1nc(-c2ccc(C(=O)NCc3ccc(F)cc3)cc2)cs1 | 38.3 µM
89 | O=C(CSc1nnc2n1CCCCC2)Nc1ccc2[nH]c(=O)[nH]c2c1 | > 50 µM (inactive)
90 | COc1ccc(CCn2cnc3c([nH]c4ccccc43)c2=O)cc1 | 2.47 µM
91 | Cc1nc(-c2ccccn2)sc1C(=O)Nc1ccc(C#N)cc1 | > 50 µM (inactive)
92 | Cc1cccc(NC(=O)CN2C(=O)COc3cc(S(=O)(=O)N4CCCC4)ccc32)c1C | 21.4 µM
93 | Cc1ccc(Cl)cc1NC(=O)COC(=O)c1ccc2ccccc2n1 | > 50 µM (inactive)
94 | CC[C@H](C)C[C@H]1CC[C@](O)([C@](C)(O)C(=O)N[C@@H]2C(=O)N3NCCC[C@@H]3C(=O)N(O)[C@@H](C)C(=O)NCC(=O)N3NCCC[C@H]3C(=O)N(O)[C@H](C)C(=O)O[C@H]2C(C)C)O[C@@H]1C | 2.09 µM
95 | O=C(Cc1noc2ccccc12)N1CCN(c2ccc([N+](=O)[O-])cc2)CC1 | > 50 µM (inactive)
96 | Cc1c(-c2nnc(-c3ccccn3)o2)nnn1-c1cccc(Cl)c1 | 44.4 µM
97 | O=C(Nc1ccc2sccc2c1)c1ccc(F)cc1 | 35.4 µM
98 | Cc1nn(-c2ccc([N+](=O)[O-])cc2)c(C)c1-c1nc2ccccc2[nH]1 | 23.6 µM
